Patent US11945822B2, “Pyrazolo-triazine and/or pyrazolo-pxrimidine derivatives as selective inhibitor of cyclin dependent kinase” (QURIENT CO., LTD., priority 2018, dated 2024)

Each molecule was assayed on H460 (assay: Cellular H460 viability assay (CellTiter-Glo, 72 hours)). Details: Homo sapiens, NCI-H460.
Assay type: cell-based
Procedure, shortened: (§1)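 72 h treatment, 37 °C, 5% CO2; DMSO ctrl, final <0.1%; CellTiter-Glo luminescence; n=2.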

Row | IC50 [nM] | SMILES
1 | 1000 to 10000 | COc1cccc(-n2cccn2)c1CNc1nc(N2CCC(N)CC2)nc2c(C(C)C)cnn12 [Compound 39]
2 | 1000 to 10000 | CC(C)c1cnn2c(NCc3ccccc3-n3cc4c(n3)CCNC4=O)nc(N3CCC(N)CC3)nc12 [Compound 134]
3 | 1000 to 10000 | CC(C)c1cnn2c(NCc3ccccc3-n3cc4cc(Oc5ccccc5)ccc4n3)nc(N3CCC(N)CC3)nc12 [Compound 105]

The molecules below were run against T1, CDK2/Cyclin A (Homo sapiens, UniProt P24941) (assay: Enzymatic assay for CDK2 (FRET based LANCE Ultra kinase assay)). Details: read-out: CDK2 enzymatic activity (IC50 range).
T1 construct: purchased Invitrogen PV6290
Assay type: biochemical
Procedure, shortened: (§2)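 LANCE Ultra TR-FRET: ULight-MBP peptide (68 nM) with ATP at Km, […], 60 min at 23° C. EDTA plus Eu-anti-phospho-MBP added, another 60 min, then 665/615 nm emission read. Compounds tested as 8-dose 4-fold DMSO dilutions.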

Row | IC50 [nM] | SMILES
4 | > 1000 | COc1cccc(-n2cccn2)c1CNc1nc(N2CCC(N)CC2)nc2c(C(C)C)cnn12 [Compound 39]
5 | 100 to 1000 | CC(C)c1cnn2c(NCc3ccccc3-n3cc4c(n3)CCNC4=O)nc(N3CCC(N)CC3)nc12 [Compound 134]
6 | > 1000 | CC(C)c1cnn2c(NCc3ccccc3-n3cc4cc(Oc5ccccc5)ccc4n3)nc(N3CCC(N)CC3)nc12 [Compound 105]

These molecules were tested against T2, CDK5/p25 (Homo sapiens, UniProt Q00535) (assay: Enzymatic assay for CDK5 (FRET based LANCE Ultra kinase assay)). Details: read-out: CDK5 enzymatic activity (IC50 range).
T2 construct: purchased Invitrogen PR8543B
Assay type: biochemical
Procedure, shortened: as §2

T2 sequence (Q00535 whole entry): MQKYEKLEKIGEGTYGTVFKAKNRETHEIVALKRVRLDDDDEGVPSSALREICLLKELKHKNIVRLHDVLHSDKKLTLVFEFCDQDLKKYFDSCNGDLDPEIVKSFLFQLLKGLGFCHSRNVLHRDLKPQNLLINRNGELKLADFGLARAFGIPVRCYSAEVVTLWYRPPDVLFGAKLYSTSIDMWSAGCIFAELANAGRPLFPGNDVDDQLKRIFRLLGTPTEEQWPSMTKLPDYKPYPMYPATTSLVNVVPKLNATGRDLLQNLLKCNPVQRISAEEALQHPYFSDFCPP
T2 sequence (Q15078 99-307 partner limits assumed): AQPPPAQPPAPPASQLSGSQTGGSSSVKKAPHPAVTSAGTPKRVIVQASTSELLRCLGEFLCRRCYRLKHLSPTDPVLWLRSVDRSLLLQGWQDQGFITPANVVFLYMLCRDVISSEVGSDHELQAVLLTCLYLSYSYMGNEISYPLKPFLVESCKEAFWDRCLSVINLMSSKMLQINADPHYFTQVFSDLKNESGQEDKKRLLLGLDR

Row | IC50 [nM] | SMILES
7 | > 1000 | COc1cccc(-n2cccn2)c1CNc1nc(N2CCC(N)CC2)nc2c(C(C)C)cnn12 [Compound 39]
8 | 100 to 1000 | CC(C)c1cnn2c(NCc3ccccc3-n3cc4c(n3)CCNC4=O)nc(N3CCC(N)CC3)nc12 [Compound 134]
9 | > 1000 | CC(C)c1cnn2c(NCc3ccccc3-n3cc4cc(Oc5ccccc5)ccc4n3)nc(N3CCC(N)CC3)nc12 [Compound 105]

The molecules below were run on MV4-11 (assay: Cellular MV4-11 viability assay (CellTiter-Glo, 72 hours)). Details: Homo sapiens.
Assay type: cell-based
Procedure, shortened: as §1

Row | IC50 [nM] | SMILES
10 | 1000 to 10000 | COc1cccc(-n2cccn2)c1CNc1nc(N2CCC(N)CC2)nc2c(C(C)C)cnn12 [Compound 39]
11 | < 1000 | CC(C)c1cnn2c(NCc3ccccc3-n3cc4c(n3)CCNC4=O)nc(N3CCC(N)CC3)nc12 [Compound 134]

These molecules were tested on HCT116 (assay: Cellular HCT116 viability assay (CellTiter-Glo, 72 hours)). Details: Homo sapiens, HCT-116.
Assay type: cell-based
Procedure, shortened: as §1

Row | IC50 [nM] | SMILES
12 | < 1000 | CC(C)c1cnn2c(NCc3ccccc3-n3cc4c(n3)CCNC4=O)nc(N3CCC(N)CC3)nc12 [Compound 134]

Each molecule was assayed on MOLT-4 (assay: Cellular MOLT-4 viability assay (CellTiter-Glo, 72 hours)). Details: Homo sapiens, MOLT4 viability assay.
Assay type: cell-based
Procedure, shortened: as §1

Row | IC50 [nM] | SMILES
13 | > 10000 | COc1cccc(-n2cccn2)c1CNc1nc(N2CCC(N)CC2)nc2c(C(C)C)cnn12 [Compound 39]
14 | 1000 to 10000 | CC(C)c1cnn2c(NCc3ccccc3-n3cc4cc(Oc5ccccc5)ccc4n3)nc(N3CCC(N)CC3)nc12 [Compound 105]

The molecules below were run against T3, CDK1/Cyclin B (Homo sapiens, UniProt P06493) (assay: Enzymatic assay for CDK1 (FRET based LANCE Ultra kinase assay)). Details: read-out: CDK1 enzymatic activity (IC50 range).
T3 construct: purchased Invitrogen PR4768C
Assay type: biochemical
Procedure, shortened: as §2

T3 sequence (P06493 whole entry): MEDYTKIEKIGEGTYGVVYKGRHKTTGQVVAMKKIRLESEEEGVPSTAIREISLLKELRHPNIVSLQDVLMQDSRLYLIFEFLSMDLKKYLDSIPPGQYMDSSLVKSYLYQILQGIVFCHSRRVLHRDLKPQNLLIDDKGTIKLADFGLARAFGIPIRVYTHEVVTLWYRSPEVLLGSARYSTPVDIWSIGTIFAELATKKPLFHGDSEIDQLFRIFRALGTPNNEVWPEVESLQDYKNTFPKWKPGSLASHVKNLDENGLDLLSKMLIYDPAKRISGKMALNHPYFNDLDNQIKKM
T3 sequence (P14635 whole entry partner): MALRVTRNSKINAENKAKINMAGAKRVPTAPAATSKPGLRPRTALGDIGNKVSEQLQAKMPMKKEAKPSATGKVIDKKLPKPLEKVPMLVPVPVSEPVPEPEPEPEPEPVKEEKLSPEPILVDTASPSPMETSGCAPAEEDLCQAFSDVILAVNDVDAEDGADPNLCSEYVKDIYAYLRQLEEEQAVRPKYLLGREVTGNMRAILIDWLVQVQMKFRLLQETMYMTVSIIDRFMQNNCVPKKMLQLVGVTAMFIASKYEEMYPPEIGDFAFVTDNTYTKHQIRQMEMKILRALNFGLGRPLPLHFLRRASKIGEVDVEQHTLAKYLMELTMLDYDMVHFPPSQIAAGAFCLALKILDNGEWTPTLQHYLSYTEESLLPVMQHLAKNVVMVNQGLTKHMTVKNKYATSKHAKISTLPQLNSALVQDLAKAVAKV

Row | IC50 [nM] | SMILES
15 | > 1000 | COc1cccc(-n2cccn2)c1CNc1nc(N2CCC(N)CC2)nc2c(C(C)C)cnn12 [Compound 39]
16 | > 1000 | CC(C)c1cnn2c(NCc3ccccc3-n3cc4c(n3)CCNC4=O)nc(N3CCC(N)CC3)nc12 [Compound 134]
17 | > 1000 | CC(C)c1cnn2c(NCc3ccccc3-n3cc4cc(Oc5ccccc5)ccc4n3)nc(N3CCC(N)CC3)nc12 [Compound 105]

What follows are molecules tested against T4, CDK7/Cyclin H/MNAT1 (Homo sapiens, UniProt P50613) (assay: Enzymatic assay for CDK7 (FRET based LANCE Ultra kinase assay)). Details: CDK7 over CDK1.
T4 construct: purchased Invitrogen PR6749B
Assay type: biochemical
Procedure, shortened: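 LANCE Ultra TR-FRET kinase assay using a ULight-labeled peptide substrate and a Eu-labeled anti-phospho antibody, with ATP at its Km. Purified CDK/cyclin complex was added to compound after brief centrifugation.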

T4 sequence (P50613 whole entry): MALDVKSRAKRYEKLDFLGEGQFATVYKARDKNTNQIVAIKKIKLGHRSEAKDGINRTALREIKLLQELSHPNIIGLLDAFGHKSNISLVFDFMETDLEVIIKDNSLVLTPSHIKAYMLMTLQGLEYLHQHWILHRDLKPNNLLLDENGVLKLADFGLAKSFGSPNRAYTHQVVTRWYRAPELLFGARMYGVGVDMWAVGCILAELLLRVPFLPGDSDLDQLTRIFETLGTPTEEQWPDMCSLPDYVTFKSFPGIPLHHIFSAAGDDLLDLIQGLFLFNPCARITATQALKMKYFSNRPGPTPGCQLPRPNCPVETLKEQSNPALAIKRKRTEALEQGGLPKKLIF
T4 sequence (P51946 whole entry partner): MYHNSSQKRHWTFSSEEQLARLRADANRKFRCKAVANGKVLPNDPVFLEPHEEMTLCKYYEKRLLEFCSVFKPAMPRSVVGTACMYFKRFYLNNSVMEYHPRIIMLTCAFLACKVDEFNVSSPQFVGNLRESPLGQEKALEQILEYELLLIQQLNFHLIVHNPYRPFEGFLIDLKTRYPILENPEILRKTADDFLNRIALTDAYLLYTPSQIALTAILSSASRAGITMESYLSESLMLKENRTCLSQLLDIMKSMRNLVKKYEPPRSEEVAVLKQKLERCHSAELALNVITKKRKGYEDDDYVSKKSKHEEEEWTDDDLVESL
T4 sequence (P51948 whole entry partner): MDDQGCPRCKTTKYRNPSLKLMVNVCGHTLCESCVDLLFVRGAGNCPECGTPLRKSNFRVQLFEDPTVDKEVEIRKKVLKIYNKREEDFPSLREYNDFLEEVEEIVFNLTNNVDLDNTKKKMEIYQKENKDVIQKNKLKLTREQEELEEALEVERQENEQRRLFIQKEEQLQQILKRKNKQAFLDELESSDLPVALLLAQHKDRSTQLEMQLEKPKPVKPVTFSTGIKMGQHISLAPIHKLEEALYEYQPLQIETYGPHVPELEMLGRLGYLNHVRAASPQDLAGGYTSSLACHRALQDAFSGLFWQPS

Row | CDK1/CDK7: Selectivity of CDK7 inhibition over CDK1 inhibition | SMILES
18 | A (A=greater than 200 fold) | COc1cccc(-n2cccn2)c1CNc1nc(N2CCC(N)CC2)nc2c(C(C)C)cnn12 [Compound 39]
19 | A (A=greater than 200 fold) | CC(C)c1cnn2c(NCc3ccccc3-n3cc4c(n3)CCNC4=O)nc(N3CCC(N)CC3)nc12 [Compound 134]
20 | A (A=greater than 200 fold) | CC(C)c1cnn2c(NCc3ccccc3-n3cc4cc(Oc5ccccc5)ccc4n3)nc(N3CCC(N)CC3)nc12 [Compound 105]

Same assay, conditions: CDK7 over CDK2

Row | SMILES | CDK2/CDK7: Selectivity of CDK7 inhibition over CDK2 inhibition
21 | COc1cccc(-n2cccn2)c1CNc1nc(N2CCC(N)CC2)nc2c(C(C)C)cnn12 [Compound 39] | A (A=greater than 200 fold)
22 | CC(C)c1cnn2c(NCc3ccccc3-n3cc4c(n3)CCNC4=O)nc(N3CCC(N)CC3)nc12 [Compound 134] | B (B=less than 200 fold, but greater than 20 fold)
23 | CC(C)c1cnn2c(NCc3ccccc3-n3cc4cc(Oc5ccccc5)ccc4n3)nc(N3CCC(N)CC3)nc12 [Compound 105] | B (B=less than 200 fold, but greater than 20 fold)

Same assay, conditions: CDK7 over CDK5

Row | SMILES | CDK5/CDK7: Selectivity of CDK7 inhibition over CDK5 inhibition
24 | COc1cccc(-n2cccn2)c1CNc1nc(N2CCC(N)CC2)nc2c(C(C)C)cnn12 [Compound 39] | A (A=greater than 200 fold)
25 | CC(C)c1cnn2c(NCc3ccccc3-n3cc4c(n3)CCNC4=O)nc(N3CCC(N)CC3)nc12 [Compound 134] | B (B=less than 200 fold, but greater than 20 fold)
26 | CC(C)c1cnn2c(NCc3ccccc3-n3cc4cc(Oc5ccccc5)ccc4n3)nc(N3CCC(N)CC3)nc12 [Compound 105] | B (B=less than 200 fold, but greater than 20 fold)

Same assay, conditions: read-out: CDK7 enzymatic activity (IC50 range)

Row | IC50 [nM] | SMILES
27 | < 100 | COc1cccc(-n2cccn2)c1CNc1nc(N2CCC(N)CC2)nc2c(C(C)C)cnn12 [Compound 39]
28 | < 100 | CC(C)c1cnn2c(NCc3ccccc3-n3cc4c(n3)CCNC4=O)nc(N3CCC(N)CC3)nc12 [Compound 134]
29 | < 100 | CC(C)c1cnn2c(NCc3ccccc3-n3cc4cc(Oc5ccccc5)ccc4n3)nc(N3CCC(N)CC3)nc12 [Compound 105]

What follows are molecules tested on RPMI-8226 (assay: Cellular RPMI-8226 viability assay (CellTiter-Glo, 72 hours)). Details: Homo sapiens.
Assay type: cell-based
Procedure, shortened: as §1

Row | IC50 [nM] | SMILES
30 | 1000 to 10000 | COc1cccc(-n2cccn2)c1CNc1nc(N2CCC(N)CC2)nc2c(C(C)C)cnn12 [Compound 39]
31 | < 1000 | CC(C)c1cnn2c(NCc3ccccc3-n3cc4c(n3)CCNC4=O)nc(N3CCC(N)CC3)nc12 [Compound 134]
32 | 1000 to 10000 | CC(C)c1cnn2c(NCc3ccccc3-n3cc4cc(Oc5ccccc5)ccc4n3)nc(N3CCC(N)CC3)nc12 [Compound 105]

What follows are molecules tested on MM.1S (assay: Cellular MM.1S viability assay (CellTiter-Glo, 72 hours)). Details: Homo sapiens, MM1.S.
Assay type: cell-based
Source text: Human T-cell acute lymphoblastic leukemia cell line, MOLT-4 (ATCC, Cat #CRL-1582), Human multiple myeloma cell line, RPMI-8226 (Invitrogen, Cat #22400-089) and MM.1S (ATCC, Cat #CRL-2974), NSCLC (Non-small cell lung cancer) cell line H460 (ATCC, Cat #HTB-177), Human colon colorectal carcinoma cell line HCT116 (ATCC, Cat #CCL-247), Human acute monocytic leukemia cell line MV4-11 (ATCC, Cat #CRL-9591), OVCAR-3 (ATCC, Cat #HTB-161) and A2780 (ECACC, Cat #93112519) were obtained from ATCC. Cells were grown in RPMI-1640 media (Invitrogen, Cat #22400-089) supplemented with 10% FBS (Invitrogen, Cat #10099141) and 1% penicillin/streptomycin (Invitrogen, Cat #15070063) and cultured at 37° C., 5% CO2 in a humidified chamber. All cell lines were routinely tested for mycoplasma.
The effect of the CDK7 inhibitor to inhibit the growth of target cancer cells was evaluated through the 72 hours time period of viability assay. Briefly, the candidate cell line ware plated in 96 well plate at the following density of cells respectively. 1×10^4 cells/well for MOLT-4, RPMI-8226, MV4-11 and MM.1S, 5×10^3 for H460, HCT116 and OVCAR-3 and IX 10^3 for A2780. After 24 hours, the cells were treated with various concentrations of the compound (ranging from 0.0015 uM to 10 uM). DMSO solvent without compound served as a control and final DMSO concentration less than 0.1%. After 72 hours of incubation at 37° C., 5% CO2 incubator, cells were analyzed for the viability using the CellTiter-Glo Luminescent Cell Viability Assay (Promega, Cat #G7570). All viability assays were performed in duplicate and Luminescence was read using an Envision (Perkin Elmer, USA). Data was analyzed using XLfit software.

Row | IC50 [nM] | SMILES
33 | 1000 to 10000 | COc1cccc(-n2cccn2)c1CNc1nc(N2CCC(N)CC2)nc2c(C(C)C)cnn12 [Compound 39]
34 | 1000 to 10000 | CC(C)c1cnn2c(NCc3ccccc3-n3cc4c(n3)CCNC4=O)nc(N3CCC(N)CC3)nc12 [Compound 134]
35 | ≤ 1000 | CC(C)c1cnn2c(NCc3ccccc3-n3cc4cc(Oc5ccccc5)ccc4n3)nc(N3CCC(N)CC3)nc12 [Compound 105]
